# Test results taken from patent US20110131683A1, “Polypeptide Inducing Dwarfism of Plants, Polynucleotide Coding the Polypeptide, and Those Use” (GENOMINE, INC., priority 2007, published 2011).
# How the values were obtained:
# Assay type in all cases: in vivo, Arabidopsis thaliana
# [1] = test system: SEN::AtGA2ox4-9 and SEN::AtGA2ox4-10 dwarfism lines; assay: Phenotype recovery of SEN::AtGA2ox4 mutant by treatment with GA3
# Experimental: In order to examine whether the AtGA2ox4 gene is actually involved in gibberellin catabolism, the SEN::AtGA2ox4-9 and the SEN::AtGA2ox4-10 line, both showing dwarfism phenotypes, were grown for 30 days while 10^−4 M GA3 (Sigma, USA) was applied twice at intervals of one week starting from 12 days after germination. Treatment with the active gibberellin GA3 may recover the phenotype of the dwarfism-induced mutant in which gibberellin insufficiency was caused by the overexpression of the AtGA2ox4 gene, to that of the wild-type. Comparisons were made between the mutants treated with or without GA3 (FIGS. 10, 11 and 12). […] This was true of GA3-treated mutants. These facts allow an inference that the gene of the present invention plays an important role in dwarfism induction in plants, but is not involved in the control of flowering time.
# [2] = test system: AtGA20ox1, AtGA20ox2 and AtGA3ox1 expression; assay: RT-PCR expression of gibberellin biosynthesis-related genes in SEN::AtGA2ox4 mutant; conditions: FIG. 9
# Experimental: Genes associated with GA 2-oxidase activity, flowering and a feedback mechanism of the gibberellin metabolism in the SEN::AtGA2ox4 mutant with a dwarfism phenotype were analyzed for expression patterns. In this regard, total RNA was isolated from flowers, roots, stems, leaves and siliques of the wild-type Arabidopsis thaliana and the SEN::AtGA2ox4 mutant, both grown for 30 days after germination, with the aid of RNasey Plant Mini Kit (QIAGEN, Germany). cDNA was synthesized from 1 μg of each RNA using Superscript III Reverse Transcriptase (INVITROGEN, USA) under the conditions of 65° C., 5 min; 50° C., 60 min; and 70° C., 15 min. Then, PCR was performed using the synthesized cDNAs as templates in the presence of the primers, specific for GA 2-oxidase and flowering genes, listed in Table 1, below. The PCR was initiated by denaturing the template DNA at 94° C. for 2 min and performed with 30 cycles of 94° C., 1 min; 55° C., 1.5 min; and 72° C., 1 min, followed by extension at 72° C. for 15 min. […]
# An examination was made about whether the gene of the present invention is involved in the feedback mechanism of the gibberellin metabolism and thus in gibberellin catabolism. For this, AtGA20ox1 and AtGA20ox2, both coding for GA20-oxidase, and AtGA3ox1 coding for GA3-oxidase were analyzed for expression levels in the SEN::AtGA2ox4 mutant. […]
# [3] = test system: proteins up-regulated by AtGA2ox4 overexpression; assay: Two-dimensional electrophoresis of proteins of SEN::AtGA2ox4 mutant; conditions: SEN::AtGA2ox4 mutant grown 30 days, 2-D electrophoresis, Table 2
# Experimental: Proteins were isolated from the wild-type Arabidopsis thaliana (FIG. 13), the SEN::AtGA2ox4 mutant (FIG. 14), and the GA3-treated SEN::AtGA2ox4 mutant (FIG. 15), all grown for 30 days after germination, and analyzed for expression pattern by two-dimensional electrophoresis. Protein isolation for each plant was conducted as follows. Each plant was mashed in 10 volumes of a reagent comprising 7M urea, 2M thiourea, 4% (w/v) 3-[(3-cholamidopropy)dimethyammonio]-1-propanesulfonate (CHAPS), 1% (w/v) dithiothreitol (DTT), 2% (v/v) pharmalyte and 1 mM benzamidine, followed by heating at 100° C. for 10 min. After centrifugation at 15,000 rpm for 1 hour, the supernatant was used as a sample for two-dimensional electrophoresis. Protein quantities were determined using the Bradford method (Bradford et al., 1976). For primary isoelectric focusing (IEF), IPG strips were soaked at room temperature for 12-16 hrs in a reswelling solution comprising 7M urea, 2M thiourea, 2% 3-[(3-cholamidopropy)dimethylammonio]-1-propanesulfonate (CHAPS), 1% dithiothreitol (DTT) and 1% pharmalyte. Each protein sample was used in the amount of 200 μg per strip. […] The protein spots were quantified to examine a change in expression level by the analysis of the scanned images using the PDQuest software (version 7.0, BioRad). The quantity of each spot was normalized according to the total intensity of valid spots. […]
structure (smiles),measurement,setting,value
C=C1C[C@]23C[C@@]1(O)CC[C@H]2[C@@]12C=C[C@H](O)[C@@](C)(C(=O)O1)[C@H]2[C@@H]3C(=O)O [GA3],phenotype of dwarfism-induced mutant lines after GA3 treatment,"[1]; 10^-4 M GA3 applied twice at intervals of one week starting 12 days after germination, grown 30 days, SEN::AtGA2ox4-9 and -10 lines",recovered almost perfectly to the wild-type phenotype
same,flowering time of GA3-treated mutants versus wild-type,[1]; GA3-treated SEN::AtGA2ox4 mutants,not different in flowering time from the wild-type
same,"expression levels of AtGA20ox1, AtGA20ox2 and AtGA3ox1 after GA3 treatment",[2],return the expression levels to those of the wild-type
same,"proteins up-regulated by AtGA2ox4 overexpression, after GA3 treatment",[3],recovered to the phenotype of the wild-type
